Here are results for 17 compounds from ChEMBL document CHEMBL1138597, “Synthesis and biological evaluation of ((4-keto)-phenoxy)methyl biphenyl-4-sulfonamides: a class of potent aggrecanase-1 inhibitors” (Bioorg Med Chem Lett, 2009).

Calls of active or inactive are those of the source. The calls are words filed in the database; no cut-off is given here.

The target in series [1] is 72 kDa type IV collagenase (Homo sapiens, UniProt P08253). As to the kind of experiment: Inhibition of MMP2.
Series [2] has as its target Collagenase 3 (Homo sapiens, UniProt P45452). The experiment in a line: Inhibition of MMP13.
For series [3], the target named is T1, A disintegrin and metalloproteinase with thrombospondin motifs 4 (Bos taurus) (UniProt Q9TT93).
T1 sequence (whole entry): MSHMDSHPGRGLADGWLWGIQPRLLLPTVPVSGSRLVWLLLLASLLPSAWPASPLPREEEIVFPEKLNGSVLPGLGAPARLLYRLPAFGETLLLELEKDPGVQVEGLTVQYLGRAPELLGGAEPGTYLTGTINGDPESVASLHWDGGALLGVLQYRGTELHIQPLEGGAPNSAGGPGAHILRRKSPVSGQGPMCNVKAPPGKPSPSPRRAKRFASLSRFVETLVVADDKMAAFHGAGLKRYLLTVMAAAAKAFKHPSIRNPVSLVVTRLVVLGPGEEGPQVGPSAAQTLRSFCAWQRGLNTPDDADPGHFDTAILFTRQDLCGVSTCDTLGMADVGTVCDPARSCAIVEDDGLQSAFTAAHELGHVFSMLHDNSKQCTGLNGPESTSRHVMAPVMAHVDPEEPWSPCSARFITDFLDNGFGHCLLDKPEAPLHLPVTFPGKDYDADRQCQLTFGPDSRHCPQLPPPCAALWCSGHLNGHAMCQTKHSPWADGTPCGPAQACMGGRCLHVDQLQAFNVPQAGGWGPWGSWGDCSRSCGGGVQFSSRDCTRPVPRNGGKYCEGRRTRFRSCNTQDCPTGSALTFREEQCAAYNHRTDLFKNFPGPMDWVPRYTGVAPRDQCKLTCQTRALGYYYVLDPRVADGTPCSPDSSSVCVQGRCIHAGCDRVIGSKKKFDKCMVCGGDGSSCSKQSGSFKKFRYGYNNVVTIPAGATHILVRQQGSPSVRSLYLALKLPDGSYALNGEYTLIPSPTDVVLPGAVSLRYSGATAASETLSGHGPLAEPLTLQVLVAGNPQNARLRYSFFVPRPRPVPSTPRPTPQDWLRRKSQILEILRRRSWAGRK
As to the kind of experiment: Inhibition of IL1-induced aggrecanase activity in bovine cartilage explant assessed as inhibition of proteoglycan degradation at 10 ug/ml after 3 days.

Series [4] has as its target Matrix metalloproteinase-14 (Homo sapiens, UniProt P50281). The experiment in a line: Inhibition of MMP14.
Series [5] deals with T1, A disintegrin and metalloproteinase with thrombospondin motifs 4 (Bos taurus). As to the kind of experiment: Inhibition of IL1-induced aggrecanase activity in bovine cartilage explant assessed as release of degraded extracellular matrix aggrecan.
Series [6] has as its target T2, Interstitial collagenase (Homo sapiens, UniProt P03956).
T2 sequence (P03956 whole entry): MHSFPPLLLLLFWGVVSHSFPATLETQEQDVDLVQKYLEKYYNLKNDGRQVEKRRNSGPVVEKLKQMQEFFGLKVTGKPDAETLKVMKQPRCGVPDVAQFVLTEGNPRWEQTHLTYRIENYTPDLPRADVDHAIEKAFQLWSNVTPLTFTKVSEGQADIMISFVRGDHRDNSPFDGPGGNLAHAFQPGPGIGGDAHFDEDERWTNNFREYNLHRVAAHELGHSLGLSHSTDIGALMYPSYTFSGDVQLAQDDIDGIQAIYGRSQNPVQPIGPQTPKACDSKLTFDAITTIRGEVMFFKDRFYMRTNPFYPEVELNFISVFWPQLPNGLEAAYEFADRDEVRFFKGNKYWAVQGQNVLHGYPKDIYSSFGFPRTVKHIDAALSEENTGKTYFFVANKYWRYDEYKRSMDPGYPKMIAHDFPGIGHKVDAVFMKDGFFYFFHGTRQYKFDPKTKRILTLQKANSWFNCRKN
The experiment in a line: Inhibition of MMP1.

Series [7] addresses T3, A disintegrin and metalloproteinase with thrombospondin motifs 4 (Homo sapiens, UniProt O75173).
T3 sequence (O75173 whole entry): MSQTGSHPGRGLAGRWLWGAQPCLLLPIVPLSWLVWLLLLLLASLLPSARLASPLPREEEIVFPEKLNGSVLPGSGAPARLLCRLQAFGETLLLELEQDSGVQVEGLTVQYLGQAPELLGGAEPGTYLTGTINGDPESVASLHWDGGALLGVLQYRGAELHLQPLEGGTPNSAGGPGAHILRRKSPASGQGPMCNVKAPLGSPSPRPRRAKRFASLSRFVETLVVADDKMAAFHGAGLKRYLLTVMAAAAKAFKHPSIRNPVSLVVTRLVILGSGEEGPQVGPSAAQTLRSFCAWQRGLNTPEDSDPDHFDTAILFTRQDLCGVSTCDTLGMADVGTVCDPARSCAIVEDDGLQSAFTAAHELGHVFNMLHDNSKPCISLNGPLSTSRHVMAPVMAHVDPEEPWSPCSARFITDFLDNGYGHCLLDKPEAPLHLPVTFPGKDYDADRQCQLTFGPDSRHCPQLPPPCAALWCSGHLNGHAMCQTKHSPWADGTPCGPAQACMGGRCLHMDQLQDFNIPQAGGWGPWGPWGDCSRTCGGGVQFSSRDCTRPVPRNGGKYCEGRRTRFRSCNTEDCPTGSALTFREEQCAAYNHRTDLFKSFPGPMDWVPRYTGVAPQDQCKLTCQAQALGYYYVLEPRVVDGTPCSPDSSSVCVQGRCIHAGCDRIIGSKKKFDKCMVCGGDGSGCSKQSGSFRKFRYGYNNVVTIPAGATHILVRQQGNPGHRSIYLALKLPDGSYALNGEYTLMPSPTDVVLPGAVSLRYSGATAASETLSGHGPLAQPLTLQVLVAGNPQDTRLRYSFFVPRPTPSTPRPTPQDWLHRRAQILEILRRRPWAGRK
The experiment in a line: Inhibition of aggrecanase1.

In series [8] the target is T4, A disintegrin and metalloproteinase with thrombospondin motifs 5 (Homo sapiens) (UniProt Q9UNA0).
T4 sequence (whole entry): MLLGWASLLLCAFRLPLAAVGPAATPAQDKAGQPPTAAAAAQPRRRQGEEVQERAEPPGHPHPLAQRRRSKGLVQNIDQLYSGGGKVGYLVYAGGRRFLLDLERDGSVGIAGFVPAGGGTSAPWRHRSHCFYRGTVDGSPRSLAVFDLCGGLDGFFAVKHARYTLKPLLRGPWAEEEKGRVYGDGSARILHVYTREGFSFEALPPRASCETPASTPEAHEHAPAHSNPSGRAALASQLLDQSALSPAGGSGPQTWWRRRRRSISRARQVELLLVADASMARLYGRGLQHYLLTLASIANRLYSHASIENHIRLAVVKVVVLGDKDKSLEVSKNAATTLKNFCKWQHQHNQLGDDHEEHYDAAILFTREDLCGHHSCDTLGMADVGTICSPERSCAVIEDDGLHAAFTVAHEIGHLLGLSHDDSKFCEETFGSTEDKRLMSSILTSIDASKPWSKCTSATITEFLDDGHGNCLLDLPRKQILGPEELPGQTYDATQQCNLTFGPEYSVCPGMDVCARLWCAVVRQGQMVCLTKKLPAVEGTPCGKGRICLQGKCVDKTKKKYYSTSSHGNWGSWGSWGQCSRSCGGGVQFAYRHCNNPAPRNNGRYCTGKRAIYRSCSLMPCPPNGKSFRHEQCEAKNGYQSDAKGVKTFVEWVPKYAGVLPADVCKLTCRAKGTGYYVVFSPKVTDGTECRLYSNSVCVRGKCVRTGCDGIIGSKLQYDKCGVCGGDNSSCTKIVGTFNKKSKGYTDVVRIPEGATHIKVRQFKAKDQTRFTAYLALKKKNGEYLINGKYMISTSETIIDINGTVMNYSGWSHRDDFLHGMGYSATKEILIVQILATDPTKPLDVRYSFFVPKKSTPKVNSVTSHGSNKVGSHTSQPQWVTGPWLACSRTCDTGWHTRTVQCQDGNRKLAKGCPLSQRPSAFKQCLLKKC
The experiment in a line: Inhibition of aggrecanase2 at 2.5 uM.

The target of series [9] is T5, A disintegrin and metalloproteinase with thrombospondin motifs 5 (Homo sapiens, UniProt Q9UNA0).
T5 sequence (Q9UNA0 whole entry): T4 sequence (whole entry)
As to the kind of experiment: Inhibition of aggrecanase2.

A short description of series [10]: Clearance in Sprague-Dawley rat at 2 mg/kg, iv or 25 mg/kg, po. The class given is ADME, organism-based. As to conditions: in vivo.
Series [11] is described as follows: Cmax in Sprague-Dawley rat at 2 mg/kg, iv or 25 mg/kg, po. Conditions: in vivo. In kind it is ADME, organism-based.
Series [12] in a line: Half life in Sprague-Dawley rat at 2 mg/kg, iv or 25 mg/kg, po. In kind it is ADME, organism-based. Conditions: in vivo.
Series [13] in a line: Oral bioavailability in Sprague-Dawley rat at 25 mg/kg. The class given is ADME, organism-based. Conditions: in vivo.

72 kDa type IV collagenase, sequence (P08253 whole entry): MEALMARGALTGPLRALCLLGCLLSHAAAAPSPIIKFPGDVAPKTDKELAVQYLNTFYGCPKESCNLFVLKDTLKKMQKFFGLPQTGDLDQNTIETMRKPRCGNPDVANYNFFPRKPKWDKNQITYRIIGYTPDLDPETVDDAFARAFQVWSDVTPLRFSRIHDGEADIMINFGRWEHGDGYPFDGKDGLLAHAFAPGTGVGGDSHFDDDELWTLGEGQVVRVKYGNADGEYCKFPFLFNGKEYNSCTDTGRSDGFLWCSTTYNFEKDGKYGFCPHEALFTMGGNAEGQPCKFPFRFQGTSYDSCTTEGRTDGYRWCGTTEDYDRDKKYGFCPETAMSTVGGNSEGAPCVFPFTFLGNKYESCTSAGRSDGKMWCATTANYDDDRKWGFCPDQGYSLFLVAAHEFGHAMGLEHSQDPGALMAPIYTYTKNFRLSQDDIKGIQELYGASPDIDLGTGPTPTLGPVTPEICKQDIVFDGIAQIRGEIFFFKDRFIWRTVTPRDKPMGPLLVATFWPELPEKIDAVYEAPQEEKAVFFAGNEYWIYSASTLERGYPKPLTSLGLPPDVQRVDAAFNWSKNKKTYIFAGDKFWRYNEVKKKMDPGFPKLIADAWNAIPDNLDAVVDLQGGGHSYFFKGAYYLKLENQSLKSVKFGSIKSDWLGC

A word on the IC50: it is the concentration needed to halve the response being measured. As to `CC(C)C(=O)c1ccc(OCc2ccc(-c3ccc(S(=O)(=O)N[C@@H](C(=O)O)C(C)C)cc3)cc2)cc1`, the half-maximal inhibitory concentration (IC50) in series [1] is 1.3 nM; in series [2], 1.1 nM; in [4], 915 nM; in [6], more than 100000 nM. In addition, the result in series [3] and in series [5] was Active.
For the compound `CC(C)[C@@H](NS(=O)(=O)c1ccc(-c2ccc(COc3ccc(CN4CCOCC4)cc3)cc2)cc1)C(=O)O`, the IC50 in series [7] turned out to be 6000 nM.
`Cc1c(CC(=O)Oc2ccc(-c3ccc(S(=O)(=O)N[C@@H](C(=O)O)C(C)C)cc3)cc2)oc2ccccc12` came in with a half-maximal inhibitory concentration (IC50) in series [7] of 700 nM. Compared with the last compound, the IC50 is about 8.6-fold lower.
Regarding `CC(C)[C@@H](NS(=O)(=O)c1ccc(-c2ccc(COc3ccc4c(c3)CCCC4=O)cc2)cc1F)C(=O)O`, in series [7], the half-maximal inhibitory concentration (IC50) turned out to be 180 nM.
The compound `CC(=O)c1ccc(OCc2ccc(-c3ccc(S(=O)(=O)N[C@@H](C(=O)O)C(C)C)cc3)cc2)cc1` had a half-inhibitory concentration (IC50) in series [7] of 430 nM.
Turning to `Cc1cccc(Oc2ccc(OCc3ccc(-c4ccc(S(=O)(=O)N[C@@H](C(=O)O)C(C)C)cc4)cc3)cc2)n1`, in [7], the half-maximal inhibitory concentration (IC50) was 730 nM.
With `CC(C)[C@@H](NS(=O)(=O)c1ccc(-c2ccc(COc3ccc4c(c3)CCCC4=O)cc2)cc1OC(F)(F)F)C(=O)O`, the IC50 in [7] was found to be 20000 nM. Against the preceding compound, the IC50 is about 27-fold higher.
As usually defined, the inhibition is the relative decrease from the control value, in per cent. `CC(C)[C@@H](NS(=O)(=O)c1ccc(-c2ccc(COc3ccc(C(=O)c4ccc(F)cc4)cc3)cc2)cc1)C(=O)O`: the half-maximal inhibitory concentration (IC50) in [1] was 3.6 nM; in series [2] it was 6.3 nM; in [7], 80 nM; in series [4] it was 220 nM; in series [6], more than 100000 nM. In addition, the inhibition was 71% in series [3] and 55% in series [8]. Also, the result in series [5] was Active.
`CC(C)[C@@H](NS(=O)(=O)c1ccc(-c2ccc(COc3ccc(NC(=O)OC(C)(C)C)cc3)cc2)cc1)C(=O)O` came in with an IC50 in series [7] of 590 nM.
Still for that read-out and setting: then `CC(C)[C@@H](NS(=O)(=O)c1ccc(-c2ccc(COc3ccc(C(=O)c4ccccc4)cc3)cc2)cc1)C(=O)O`, with 230 nM; and `CC(C)[C@@H](NS(=O)(=O)c1ccc(-c2ccc(COc3ccc(C(=O)N4CCOCC4)cc3)cc2)cc1)C(=O)O`, with 5200 nM.
For the compound `CC(C)[C@@H](NS(=O)(=O)c1ccc(-c2ccc(COc3ccc4c(c3)CCCC4=O)cc2)cc1)C(=O)O`, the IC50 in series [1] was 6.3 nM; in series [2] it was 2.2 nM; in [7], 230 nM; in series [9] it was 6600 nM; in series [4] it was 1300 nM; in series [6] it was more than 100000 nM. Also, in series [3], the inhibition was 53%. Further, in series [5], the outcome was Active.
What is called Cmax is the maximum level reached in the sampled fluid or tissue. In general, half-life refers to how long it takes for the measured level to halve. As usually defined, the bioavailability is dose-corrected exposure relative to a reference, in per cent. Higher therefore signals good availability. For `CC(C)[C@@H](NS(=O)(=O)c1ccc(-c2ccc(COc3ccc(C(=O)C4CCCCC4)cc3)cc2)cc1)C(=O)O`, the clearance in series [10] was found to be 6.9 mL/min/kg. Besides, the 50% inhibitory concentration (IC50) in [1] was 5.3 nM; in [2] it was 15 nM; in [7], 90 nM; in series [4], 1640 nM; in series [6], more than 100000 nM. In series [11], the highest level (Cmax) was 694 ng/mL. For the same compound, in series [3], the inhibition was determined as 69%. Besides, in series [12], the half-life was 3.07 h. Moreover, the outcome in series [5] was Active. The compound further had a bioavailability in series [13] of 13%.
As to `CC(C)[C@@H](NS(=O)(=O)c1ccc(-c2ccc(COc3ccc4c(c3)CCCC4=O)cc2)cc1C(F)(F)F)C(=O)O`, the half-inhibitory concentration (IC50) in [7] was determined as 3200 nM.
For the compound `CC(C)[C@@H](NS(=O)(=O)c1ccc(-c2ccc(COc3ccc4ccccc4n3)cc2)cc1)C(=O)O`, the IC50 in series [7] came to 400 nM.
Same read-out and setting: then `CC(C)[C@@H](NS(=O)(=O)c1ccc(-c2ccc(COc3cccc(N(C)C)c3)cc2)cc1)C(=O)O`, with 4900 nM; and `CC(C)[C@@H](NS(=O)(=O)c1ccc(-c2ccc(COc3cc4cccc(C(F)(F)F)c4nc3C(F)(F)F)cc2)cc1)C(=O)O`, with 200 nM.
